What was measured:
Assay in all cases: greenhouse post-emergence herbicidal test
Type in all cases: in vivo
[1] = tested on: Setaria viridis; settings: application rate 1 kg/ha
Excerpt: (§1) The seeds of the test plants were sown separately for each species. For the post-emergence treatment, the test plants were first grown to a height of 3 to 15 cm, depending on the plant habit, and only then treated with the active compounds which had been suspended or emulsified in water. For this purpose, the test plants were either sown directly and grown in the same containers, or they were first grown separately as seedlings and transplanted into the test containers a few days prior to treatment. The rate of application for the post-emergence treatment was 1.0 kg/ha of a.s. (active substance). Depending on the species, the plants were kept at 10-25° C. or 20-35° C. The test period extended over 2 to 4 weeks. During this time, the plants were tended, and their response to the individual treatments was evaluated. Evaluation was carried out using a scale from 0 to 100. 100 means no emergence of the plants, or complete destruction of at least the aerial parts, and 0 means no damage, or normal course of growth. The plants used in the greenhouse experiments belonged to the following species: [table]

[2] = tested on: Chenopodium album
Excerpt: as §1, with “The rate of application for the post-emergence treatment was 1.0 kg/ha of a.s.” left out

[3] = tested on: Amaranthus retroflexus
Excerpt: as §1, with “The rate of application for the post-emergence treatment was 1.0 kg/ha of a.s.” left out

[4] = tested on: Galium aparine; settings: application rate 0.5 kg/ha
Excerpt: as §1, with “The rate of application for the post-emergence treatment was 1.0 kg/ha of a.s.” left out

Row | SMILES | post-emergence activity against Setaria viridis [1] | post-emergence activity against Chenopodium album ([2]; application rate 1 kg/ha) | post-emergence activity against Amaranthus retroflexus ([3]; application rate 1 kg/ha) | post-emergence activity against Chenopodium album ([2]; application rate 0.5 kg/ha) | post-emergence activity against Amaranthus retroflexus ([3]; application rate 0.5 kg/ha) | post-emergence activity against Galium aparine [4]
1 | CNC(=O)C(NC(=O)c1ccc(F)cc1C(F)(F)F)C(CNS(C)(=O)=O)c1ccccc1 (mixture of isomers) [Compound 4.4] | very good | very good | very good |  |  | 
2 | CNC(=O)[C@@H](NC(=O)c1ccc(F)cc1C(F)(F)F)[C@H](CNC(C)=O)c1ccccc1 (racemic) [Compound 4.16, N-((1RS,2RS)-3-Acetylamino-1-methylcarbamoyl-2-phenylpropyl)-4-fluoro-2-trifluoromethylbenzamide] | very good | very good | very good |  |  | 
3 | CNC(=O)C(NC(=O)c1ccc(F)cc1C(F)(F)F)C(C[N+](=O)[O-])c1ccccc1 (racemic) [Compound 5.1, 4-Fluoro-N-(1-methylcarbamoyl-3-nitro-2-phenylpropyl)-2-trifluoromethylbenzamide] |  |  |  | good | very good | good
4 | CNC(=O)C(NC(=O)c1ccc(F)cc1C(F)(F)F)C(CNC(=O)C(F)(F)F)c1ccccc1 (racemic) [Compound 4.21] | very good | very good | very good |  |  | 
5 | CNC(=O)C(NC(=O)c1ccc(F)cc1C(F)(F)F)C(c1ccccc1)C(C)[N+](=O)[O-] (mixture of isomers) [Compound 5.2] |  |  |  | very good | very good | very good
6 | CNC(=O)C(NC(=O)c1ccc(F)cc1C(F)(F)F)C(CNC(=O)N(C)C)c1ccccc1C (mixture of isomers) [Compound 4.33] | very good | very good | very good |  |  | 
7 | CNC(=O)C(NC(=O)c1ccc(F)cc1C(F)(F)F)C(C[N+](=O)[O-])c1cccc(F)c1C (mixture of isomers) [Compound 5.4] |  | very good | very good |  |  | 
8 | CNC(=O)C(NC(=O)c1ccc(F)cc1C(F)(F)F)C(CNC(C)=O)c1ccccc1C (mixture of isomers) [Compound 4.34] | very good | very good | very good |  |  | 
9 | CNC(=O)C(NC(=O)c1ccc(F)cc1C(F)(F)F)C(CNC(=O)N(C)C)c1ccccc1 (racemic) [Compound 4.12] | very good | very good | very good |  |  | 
10 | CNC(=O)C(NC(=O)c1ccc(F)cc1C(F)(F)F)C(c1ccccc1C)C(C)O (racemic) [Compound 3.12] |  |  |  | very good | very good | very good
11 | CNC(=O)C(NC(=O)c1ccc(F)cc1C(F)(F)F)C(CNC(C)=O)c1cccc(F)c1C (mixture of isomers) [Compound 4.36] | very good | very good | very good |  |  | 
12 | CNC(=O)C(NC(=O)c1ccc(F)cc1C(F)(F)F)C(CNC(=O)C(Cl)(Cl)Cl)c1ccccc1 (racemic) [Compound 4.22] | very good | very good | very good |  |  | 
13 | CNC(=O)C(NC(=O)c1ccc(F)cc1C(F)(F)F)C(C[N+](=O)[O-])c1cccc(F)c1 (mixture of isomers) [Compound 5.3] |  | good | very good |  |  | 
